# Results as given in paper PMC5116675, “The lectin-like protein 1 in Lactobacillus rhamnosus GR-1 mediates tissue-specific adherence to vaginal epithelium and inhibits urogenital pathogens” (Scientific Reports, 2016).
# Tests used:
# [1] = biological target: T1, lectin domain of LGR1_Llp1 (lectin-like protein 1) (Lacticaseibacillus rhamnosus, UniProt T1SH75); assay: pull-down with sugar-coated Sepharose 6B beads, SDS-PAGE; format: binding; settings: sugar immobilised on beads; 25 mM MES, 25 mM NaCl, 1% polyvinylalcohol, 4 °C, 2 h; 100 μg/ml lectin domain
# T1 construct: gene E6L36_12050; N-terminal L-type lectin domain (PF00139, ca. 250 residues) with 22 amino acids extension, N-His6 tag (pET28a, pCMPG10775), from E. coli BL21(DE3); full protein 680 residues; FITC-labelled for glycan array
# T1 sequence (T1SH75 31-352 limits assumed): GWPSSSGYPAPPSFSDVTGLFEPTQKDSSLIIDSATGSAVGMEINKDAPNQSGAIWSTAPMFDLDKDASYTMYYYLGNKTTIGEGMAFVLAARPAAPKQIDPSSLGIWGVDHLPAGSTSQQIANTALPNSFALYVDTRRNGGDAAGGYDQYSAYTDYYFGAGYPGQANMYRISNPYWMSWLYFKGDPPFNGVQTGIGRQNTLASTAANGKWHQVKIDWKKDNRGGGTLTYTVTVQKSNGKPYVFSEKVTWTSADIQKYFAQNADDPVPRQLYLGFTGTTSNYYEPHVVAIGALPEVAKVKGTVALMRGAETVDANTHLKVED
# [2] = biological target: T1, lectin domain of LGR1_Llp1 (lectin-like protein 1); assay: mammalian glycan array v5.[…] (CFG), FITC-labelled lectin domain; format: binding; settings: glycan immobilised on NHS-activated glass slide through amino linker
Structure (SMILES),"pull-down with sugar-coated Sepharose 6B beads, SDS-PAGE [1]","mammalian glycan array v5.2 (CFG), FITC-labelled lectin domain [2]"
OC[C@H]1OC(O)[C@@H](O)[C@@H](O)[C@@H]1O (stereo partly drawn) [D-mannose],The purified lectin domain of Llp1 showed the highest binding to mannan and mannose,–
CC(=O)N[C@H]1[C@H](O[C@@H]2[C@H](O[C@]3(C(=O)O)C[C@H](O)[C@@H](NC(C)=O)[C@H]([C@H](O)[C@@H](CO)O[C@]4(C(=O)O)C[C@H](O)[C@@H](NC(C)=O)[C@H]([C@H](O)[C@H](O)CO)O4)O3)[C@@H](O)[C@H](O[C@H]3[C@H](O)[C@@H](O)[C@H](OCCN)O[C@@H]3CO)O[C@@H]2CO)O[C@H](CO)[C@H](O)[C@@H]1O[C@@H]1O[C@H](CO)[C@H](O)[C@H](O[C@]2(C(=O)O)C[C@H](O)[C@@H](NC(C)=O)[C@H]([C@H](O)[C@@H](CO)O[C@]3(C(=O)O)C[C@H](O)[C@@H](NC(C)=O)[C@H]([C@H](O)[C@H](O)CO)O3)O2)[C@H]1O [Neu5Acα2-8Neu5Acα2-3Galβ1-3GalNAcβ1-4(Neu5Acα2-8Neu5Acα2-3)Galβ1-4Glcβ-Sp0],–,LGR1_Llp1 showed also a capacity to bind to the glycosphingolipid GQ1 receptor
